# From publication PMC7589057, “Synthesis of Hantzsch Adducts as Cholinesterases and Calcium Flux inhibitors, Antioxidants and Neuroprotectives” (International Journal of Molecular Sciences, 2020)
# Several values for one entry are separate records, joined by “and”; a condition that tells them apart may be missing. Equal entries are not always repeated.
# Tests used:
# Ca^+2 channel = test: Calcium channel blockade (FLIPR Calcium 6, KCl/CaCl2-stimulated SH-SY5Y cells); assay type: cell-based; conditions: 10 μM; SH-SY5Y cells stimulated with KCl/CaCl2
# Experimental: The calcium channel blockade assay was performed as described earlier. Briefly, the SH-SY5Y cells were seeded out in 96-well dark-walled plates at a density of 1 × 10^5 cells per well. After 24 h, the cells were loaded with FLIPR Calcium 6 indicator (Molecular Devices) for 2 h at 37 °C, according to the manufacturer’s protocol. Compounds were dissolved in an appropriate amount of DMSO at 10 mM concentration and diluted to a final concentration of 10 μM in Hanks′ Balanced Salt Solution (HBSS, Thermo Fisher Scientific) buffered with HEPES (Sigma-Aldrich) at pH = 7.4, and as such used were for treatment of indicator loaded cells (10 min at 37 °C). […] The baseline fluorescence was recorded for 5 s. Then, the cells were stimulated with KCl/CaCl2 solution (in HBSS, final concentration of KCl and CaCl2 was 90 and 5 mM, respectively) and the fluorescence was recorded for a further 30 s. Dimethyl sulfoxide 1% solution in HBSS was used as a vehicle control. Nimodipine (Cayman Chemical Company) was used as a reference inhibitor at 10 μM and compounds were assessed at the same final concentration in triplicate in three independent experiments. Fluorescent intensity values were normalized to the baseline.
# EeAChE = EeAChE (Electrophorus electricus, UniProt O42275); test: biochemical; assay type: biochemical; conditions: for inhibition at 10 µM: read-out: AChE % inhibition at 10 μM (no IC50 given)
# Experimental: (§1) The evaluation of the activity of compounds against both EeAChE and eqBuChE was evaluated following the Ellman spectrophotometric method. Briefly, the reaction happens in a final volume of 3 mL of a 0.1 M phosphate-buffered solution at pH = 8.0, containing 5,5′-dithiobis-2-nitrobenzoic acid, EeAChE or eqBuChE, tested compound and bovine albumin serum phosphate-buffered (pH = 8) solution After this pre-incubation period, acetylthiocholine iodide or butyrylthiocholine iodide was added, allowing 15 min of additional incubation time.
# eqBuChE = eqBuChE (Equus caballus, UniProt P81908); test: biochemical; conditions: for inhibition at 10 µM: read-out: BuChE % inhibition at 10 μM (no IC50 given), 10 μM; for IC50: mean ± SEM, read-out: BuChE IC50
# Experimental: as §1
# [1] = Oxygen radical absorbance capacity assay (ORAC-FL); conditions: Trolox equivalents, mean (n = 3) ± SEM
# Experimental: Briefly, fluorescein and antioxidant were incubated in a black 96-well microplate (Nunc) for 15 min at 37 °C. 2,2′-Azobis(amidinopropane) dihydrochloride was then added quickly using the built-in injector of Varioskan Flash plate reader (Thermo Scientific). […] All the reactions were made in triplicate and at least three different assays were performed for each sample [9, 30].
# SH-SY5Y cells [2] = test: Neuroprotection against H2O2-induced cell death in SH-SY5Y cells (MTS); assay type: cell-based; conditions: for H2O2 (%) neuroprotection: H2O2 200 µM
# Experimental: (§2) The most balanced compounds were then submitted to evaluation of their neuroprotection activity. For this purpose, cytotoxicity was induced by H2O2, a well-known toxic responsible for the generation of ROS and by mitochondrial respiratory chain blockers oligomycin rotenone (O/R). Prior to the neuroprotective assay, the effect of the compounds on cell viability was evaluated at 1 and 10 µM, showing no cytotoxicity against SH-SY5Y cells.
# (§3) SH-SY5Y cells were seeded in 96-well culture plates at a density of 12 × 10^4 cells per well in DMEM/F12 (1:1) medium supplemented with 10% fetal bovine serum, 1X non-essential amino acids, 100 units/mL penicillin and […] streptomycin (Dutscher, France). After 48 h of incubation, the cultures were treated with 100 µl of the test compounds or DMSO (0.1%) in the same medium. After 24 h, the cells were co-incubated with H2O2 (200 µM) or O/R (O at 10 µM/R at 30 µM) with or without the tested compounds at noncytotoxic concentrations for an additional period of 24 h. The percentage of cell viability was measured using CellTiter 96 AQueous Non-Radioactive Cell Proliferation (MTS) Assay (Promega, France).
# SH-SY5Y cells [3] = test: Neuroprotection against oligomycin A/rotenone (O/R)-induced cell death in SH-SY5Y cells (MTS); assay type: cell-based; conditions: for O/R (%) neuroprotection: O at 10 µM/R at 30 µM
# Experimental: as §2, §3
# Sequence of EeAChE (O42275 24-633): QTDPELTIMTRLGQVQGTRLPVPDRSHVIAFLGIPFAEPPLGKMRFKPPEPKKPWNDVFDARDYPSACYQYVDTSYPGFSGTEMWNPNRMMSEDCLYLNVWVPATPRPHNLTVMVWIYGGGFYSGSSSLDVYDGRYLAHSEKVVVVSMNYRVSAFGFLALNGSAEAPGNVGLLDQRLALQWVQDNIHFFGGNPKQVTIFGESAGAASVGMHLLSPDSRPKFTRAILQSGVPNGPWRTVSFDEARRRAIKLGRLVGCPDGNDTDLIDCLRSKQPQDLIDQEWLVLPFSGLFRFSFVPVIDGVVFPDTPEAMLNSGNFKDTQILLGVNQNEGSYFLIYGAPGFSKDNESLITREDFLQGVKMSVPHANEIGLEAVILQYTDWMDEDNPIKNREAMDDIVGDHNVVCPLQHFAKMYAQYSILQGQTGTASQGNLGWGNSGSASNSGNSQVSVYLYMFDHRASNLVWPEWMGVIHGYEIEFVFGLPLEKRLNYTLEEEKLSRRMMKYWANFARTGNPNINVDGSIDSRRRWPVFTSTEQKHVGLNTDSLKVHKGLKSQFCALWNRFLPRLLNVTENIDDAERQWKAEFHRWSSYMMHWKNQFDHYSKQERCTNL
# Sequence of eqBuChE (P81908 whole entry): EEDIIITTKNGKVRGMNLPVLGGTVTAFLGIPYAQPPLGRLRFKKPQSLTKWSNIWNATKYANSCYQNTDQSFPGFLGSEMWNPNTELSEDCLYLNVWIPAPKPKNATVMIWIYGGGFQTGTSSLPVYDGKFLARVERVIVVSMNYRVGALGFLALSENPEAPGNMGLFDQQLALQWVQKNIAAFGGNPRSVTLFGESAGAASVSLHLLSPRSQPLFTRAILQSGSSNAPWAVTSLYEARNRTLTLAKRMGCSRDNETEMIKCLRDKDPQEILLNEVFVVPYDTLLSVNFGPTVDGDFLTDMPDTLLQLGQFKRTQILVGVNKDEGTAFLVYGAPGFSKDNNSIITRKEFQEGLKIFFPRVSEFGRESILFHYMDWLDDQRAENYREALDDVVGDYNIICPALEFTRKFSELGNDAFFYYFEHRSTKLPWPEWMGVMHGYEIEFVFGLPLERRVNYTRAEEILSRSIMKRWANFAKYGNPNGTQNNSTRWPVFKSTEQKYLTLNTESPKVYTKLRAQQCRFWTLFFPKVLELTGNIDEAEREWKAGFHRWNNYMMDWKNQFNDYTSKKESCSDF
SMILES,(%) Ca Flux Inhibition (Ca^+2 channel),inhibition at 10 µM (EeAChE; EeAChE),inhibition at 10 µM (eqBuChE),ORAC [1],further results
"COCCOC(=O)C1=C(C)NC(C)=C(C(=O)OC(C)C)C1c1cccc([N+](=O)[O-])c1 (centres unmarked) [NIM, nimodipine, reference compound]",47.91%,,,,
"COC(=O)C1=C(C)NC(C)=C(C(=O)OC)C1c1ccc(OCCCCCN2CCN(C)CC2)cc1 [3f, Dimethyl-2,6-dimethyl-4-(4-((5-(4-methylpiperazin-1-yl)pentyl)oxy)phenyl)-1,4-dihydropyridine-3,5-dicarboxylate]",38.4%,< 50%,< 50%,1.38 ± 0.02 TE,
CCOC(=O)C1=C(C)NC(C)=C(C(=O)OCC)C1c1ccc(OCCCCCCN2CCC(Cc3ccccc3)CC2)cc1 [3o],80.19%,< 50%,< 50%,1.36 ± 0.01 TE,
"COC(=O)C1=C(C)NC(C)=C(C(=O)OC)C1c1ccc(OCCCCCN2CCOCC2)cc1 [3b, Dimethyl-2,6-dimethyl-4-(4-((5-morpholinopentyl)oxy)phenyl)-1,4-dihydropyridine-3,5-dicarboxylate]",31.89%,< 50%,< 50%,2.59 TE and 2.59 ± 0.04 TE,
"CCOC(=O)C1=C(C)NC(C)=C(C(=O)OCC)C1c1ccc(OCCCCCCN2CCOCC2)cc1 [3i, 3,5-Ethyl-2,6-dimethyl-4-(4-{[6-(morpholin-4-yl)hexyl]oxy}phenyl)-1,4-dihydropyridine-3,5-dicarboxylate]",47.55%,< 50%,< 50%,1.22 ± 0.02 TE,
"CCOC(=O)C1=C(C)NC(C)=C(C(=O)OCC)C1c1ccc(OCCCCCCN2CCN(C)CC2)cc1 [3m, 3,5-Diethyl-2,6-dimethyl-4-(4-{[6-(4-methylpiperazin-1-yl)hexyl]oxy}phenyl)-1,4-dihydro-pyridine-3,5-dicarboxylate]",50.6%,< 50%,,1.10 ± 0.08 TE,IC50 (eqBuChE): 5.5 ± 0.1 µM; ORAC ([1]; listed as 2m): 1.10 TE; neuroprotective effect against H2O2 (in words) (SH-SY5Y cells [2]): modest; H2O2 (%) neuroprotection (SH-SY5Y cells [2]; 0.3 µM): 9.55 ± 0.00%; H2O2 (%) neuroprotection (SH-SY5Y cells [2]; 1 µM): 4.63 ± 0.02%; neuroprotective effect against O/R (in words) (SH-SY5Y cells [3]): modest; O/R (%) neuroprotection (SH-SY5Y cells [3]; 0.3 µM): 8.95 ± 0.00%; O/R (%) neuroprotection (SH-SY5Y cells [3]; 1 µM): 16.65 ± 0.00%
"CCOC(=O)C1=C(C)NC(C)=C(C(=O)OCC)C1c1ccc(OCCCCCCN(CC)CC)cc1 [3k, 3,5-Diethyl-4-(4-{[6-(diethylamino)hexyl]oxy}phenyl)–2,6–dimethyl-1,4–dihydropyridine-3,5-dicarboxylate]",31.66%,< 50%,,1.21 ± 0.12 TE,IC50 (eqBuChE): 9.6 ± 0.3 µM
"CCN(CC)CCCCCCOc1ccc(C2C(C(=O)OC)=C(C)NC(C)=C2C(=O)OC)cc1 [3l, 3,5-Dimethyl-4-(4-{[6-(diethylamino)hexyl]oxy}phenyl)-2,6–dimethyl-1,4–dihydropyridine-3,5-dicarboxylate]",39.74%,< 50%,,0.91 TE and 0.91 ± 0.01 TE,IC50 (eqBuChE): 8.7 ± 0.1 µM
"CCOC(=O)C1=C(C)NC(C)=C(C(=O)OCC)C1c1ccc(OCCCCCN2CCC(Cc3ccccc3)CC2)cc1 [3g, Diethyl-4-(4-((5-(4-benzylpiperidin-1-yl)pentyl)oxy)phenyl)-2,6-dimethyl-1,4-dihydropyridine-3,5-dicarboxylate]",53.6%,< 50%,< 50%,2.24 ± 0.04 TE,
"CCN(CC)CCCCCOc1ccc(C2C(C(=O)OC)=C(C)NC(C)=C2C(=O)OC)cc1 [3d, Dimethyl-4-(4-((5-(diethylamino)pentyl)oxy)phenyl)-2,6-dimethyl-1,4-dihydropyridine-3,5-dicarboxylate]",39.55%,< 50%,< 50%,1.93 ± 0.68 TE,
"COC(=O)C1=C(C)NC(C)=C(C(=O)OC)C1c1ccc(OCCCCCN2CCC(Cc3ccccc3)CC2)cc1 [3h, Dimethyl-4-(4-((5-(4-benzylpiperidin-1-yl)pentyl)oxy)phenyl)-2,6-dimethyl-1,4-dihydropyridine-3,5-dicarboxylate]",47.72%,,,2.54 TE and 2.54 ± 0.04 TE,"fold less active than tacrine (AChE IC50) (EeAChE; AChE IC50 vs tacrine): 60 fold; IC50 (EeAChE; EeAChE, mean ± SEM, read-out: AChE IC50): 1.8 ± 0.1 µM; IC50 (eqBuChE): 2 ± 0.1 µM; H2O2 (%) neuroprotection (SH-SY5Y cells [2]; 0.3 µM): 28% and 28.68% and 28.68 ± 0.02 %; H2O2 (%) neuroprotection (SH-SY5Y cells [2]; 1 µM): 23.32 ± 0.02 %; O/R (%) neuroprotection (SH-SY5Y cells [3]; 0.3 µM): 38.29% and 38.29 ± 0.04 %; O/R (%) neuroprotection (SH-SY5Y cells [3]; 1 µM): 33.90% and 33.90 ± 0.05 %"
"COC(=O)C1=C(C)NC(C)=C(C(=O)OC)C1c1ccc(OCCCCCCN2CCN(C)CC2)cc1 [3n, 3,5-Dimethyl-2,6-dimethyl-4-(4-{[6-(4-methylpiperazin-1-yl)hexyl]oxy}phenyl)-1,4-dihydro-pyridine-3,5-dicarboxylate]",28.9%,< 50%,< 50%,1.39 ± 0.12 TE,
"CCOC(=O)C1=C(C)NC(C)=C(C(=O)OCC)C1c1ccc(OCCCCCN2CCOCC2)cc1 [3a, Diethyl-2,6-dimethyl-4-(4-((5-morpholinopentyl)oxy)phenyl)-1,4-dihydropyridine-3,5-dicarboxylate]",18.58%,< 50%,< 50%,1.31 ± 0.01 TE,
"COC(=O)C1=C(C)NC(C)=C(C(=O)OC)C1c1ccc(OCCCCCCN2CCC(Cc3ccccc3)CC2)cc1 [3p, 3,5-Dimethyl-4-(4-{[6-(4-benzylpiperidin-1-yl)hexyl]oxy}phenyl)-2,6-dimethyl-1,4-dihydro-pyridine-3,5-dicarboxylate]",78.13%,< 50%,< 50%,2.28 ± 0.01 TE,
"CCOC(=O)C1=C(C)NC(C)=C(C(=O)OCC)C1c1ccc(OCCCCCN(CC)CC)cc1 [3c, Diethyl-4-(4-((5-(diethylamino)pentyl)oxy)phenyl)-2,6-dimethyl-1,4-dihydropyridine-3,5-dicarboxylate]",58.21%,< 50%,,2.64 TE and 2.64 ± 0.04 TE,IC50 (eqBuChE): 4.6 ± 0.1 µM; neuroprotective effect against H2O2 (in words) (SH-SY5Y cells [2]): modest; H2O2 (%) neuroprotection (SH-SY5Y cells [2]; 0.3 µM): 12.37 ± 0.08%; H2O2 (%) neuroprotection (SH-SY5Y cells [2]; 1 µM): 24.17 ± 0.12%; neuroprotective effect against O/R (in words) (SH-SY5Y cells [3]): modest; O/R (%) neuroprotection (SH-SY5Y cells [3]; 0.3 µM): 22.27 ± 0.09%; O/R (%) neuroprotection (SH-SY5Y cells [3]; 1 µM): 25.87 ± 0.04%
"CCOC(=O)C1=C(C)NC(C)=C(C(=O)OCC)C1c1ccc(OCCCCCN2CCN(C)CC2)cc1 [3e, Diethyl-2,6-dimethyl-4-(4-((5-(4-methylpiperazin-1-yl)pentyl)oxy)phenyl)-1,4-dihydropyridine-3,5-dicarboxylate]",40.51%,< 50%,< 50%,1.78 ± 0.00 TE,
"COC(=O)C1=C(C)NC(C)=C(C(=O)OC)C1c1ccc(OCCCCCCN2CCOCC2)cc1 [3j, 3,5-Dimethyl-2,6-dimethyl-4-(4-{[6-(morpholin-4-yl)hexyl]oxy}phenyl)-1,4-dihydropyridine-3,5-dicarboxylate]",52.57%,< 50%,< 50%,0.99 ± 0.09 TE,
